System: 313798-341-R-J2-PDC spheroids, viability
Test: Anticancer human tumor 313798-341-R-J2-PDC patient-derived cervical squamous cell carcinoma cell line growth inhibition [PI3K]
Details: spheroids with HUVEC and MSC; for IC50: curve of first compound; for viability, T/C: stronger effect = lower value
Outline: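 Viability of mixed-cell spheroids was determined after exposure to pairwise combinations, one partner being inavolisib, alpelisib, duvelisib or copanlisib. Highest tested concentration matched clinical Cmax where known and 10 microM where not, descending in half-log steps.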

[1] = second compound 0.0316 µM, first compound 0.000316 µM
[2] = second compound 0.0316 µM, first compound 0.001 µM
[3] = second compound 0.0316 µM, first compound 0.00316 µM
[4] = second compound 0.0316 µM, first compound 0.01 µM
[5] = second compound 0.0316 µM, first compound 0.0316 µM
[6] = second compound 0.0316 µM, first compound 0.1 µM
[7] = second compound 0.1 µM, first compound 0.000316 µM
[8] = second compound 0.1 µM, first compound 0.001 µM
[9] = second compound 0.1 µM, first compound 0.00316 µM
[10] = second compound 0.1 µM, first compound 0.01 µM
[11] = second compound 0.1 µM, first compound 0.0316 µM
[12] = second compound 0.1 µM, first compound 0.1 µM
[13] = second compound 0.316 µM, first compound 0.000316 µM
[14] = second compound 0.316 µM, first compound 0.001 µM
[15] = second compound 0.316 µM, first compound 0.00316 µM
[16] = second compound 0.316 µM, first compound 0.01 µM
[17] = second compound 0.316 µM, first compound 0.0316 µM
[18] = second compound 0.316 µM, first compound 0.1 µM
[19] = second compound 1 µM, first compound 0.000316 µM
[20] = second compound 1 µM, first compound 0.001 µM
[21] = second compound 1 µM, first compound 0.00316 µM
[22] = second compound 1 µM, first compound 0.01 µM
[23] = second compound 1 µM, first compound 0.0316 µM
[24] = second compound 1 µM, first compound 0.1 µM
[25] = second compound 3.16 µM, first compound 0.000316 µM
[26] = second compound 3.16 µM, first compound 0.001 µM
[27] = second compound 3.16 µM, first compound 0.00316 µM
[28] = second compound 3.16 µM, first compound 0.01 µM
[29] = second compound 3.16 µM, first compound 0.0316 µM
[30] = second compound 3.16 µM, first compound 0.1 µM
[31] = second compound 10 µM, first compound 0.000316 µM
[32] = second compound 10 µM, first compound 0.001 µM
[33] = second compound 10 µM, first compound 0.00316 µM
[34] = second compound 10 µM, first compound 0.01 µM
[35] = second compound 10 µM, first compound 0.0316 µM
[36] = second compound 10 µM, first compound 0.1 µM
[37] = second compound 0.0316 µM, first compound 0.316 µM
[38] = second compound 0.0316 µM, first compound 1 µM
[39] = second compound 0.0316 µM, first compound 3.16 µM
[40] = second compound 0.0316 µM, first compound 10 µM
[41] = second compound 0.1 µM, first compound 0.316 µM
[42] = second compound 0.1 µM, first compound 1 µM
[43] = second compound 0.1 µM, first compound 3.16 µM
[44] = second compound 0.1 µM, first compound 10 µM
[45] = second compound 0.316 µM, first compound 0.316 µM
[46] = second compound 0.316 µM, first compound 1 µM
[47] = second compound 0.316 µM, first compound 3.16 µM
[48] = second compound 0.316 µM, first compound 10 µM
[49] = second compound 1 µM, first compound 0.316 µM
[50] = second compound 1 µM, first compound 1 µM
[51] = second compound 1 µM, first compound 3.16 µM
[52] = second compound 1 µM, first compound 10 µM
[53] = second compound 3.16 µM, first compound 0.316 µM
[54] = second compound 3.16 µM, first compound 1 µM
[55] = second compound 3.16 µM, first compound 3.16 µM
[56] = second compound 3.16 µM, first compound 10 µM
[57] = second compound 10 µM, first compound 0.316 µM
[58] = second compound 10 µM, first compound 1 µM
[59] = second compound 10 µM, first compound 3.16 µM
[60] = second compound 10 µM, first compound 10 µM
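Further: spheroids exposed to compounds for seven days.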
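Wherever viability, T/C is given: 100% = DMSO vehicle control viability.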

Compound `CC(=O)c1c(C)c2cnc(Nc3ccc(N4CCNCC4)cn3)nc2n(C2CCCC2)c1=O` + Cc1nc(NC(=O)N2CCCC2C(N)=O)sc1-c1ccnc(C(C)(C)C(F)(F)F)c1 has an IC50 (second compound 0.0316 µM) greater than 100 nM, an IC50 (second compound 0.1 µM) greater than 100 nM and an IC50 (second compound 0.316 µM) greater than 100 nM. For the same compound, the IC50 (second compound 1 µM) was greater than 100 nM, the IC50 (second compound 3.16 µM) was greater than 100 nM and the IC50 (second compound 10 µM) was less than 0.316 nM. It also gave a viability, T/C [1] of 105%, a viability, T/C [2] of 96.5% and a viability, T/C [3] of 110%. It also gave a viability, T/C [4] of 105%, a viability, T/C [5] of 108% and a viability, T/C [6] of 111%. The viability, T/C [7] was 108%, the viability, T/C [8] was 99.1% and the viability, T/C [9] was 107%. For the same compound, the viability, T/C [10] was 107%, the viability, T/C [11] was 123% and the viability, T/C [12] was 110%. The viability, T/C [13] was 110%, the viability, T/C [14] was 101% and the viability, T/C [15] was 96.3%. The viability, T/C [16] was 108%, the viability, T/C [17] was 104% and the viability, T/C [18] was 115%. It also gave a viability, T/C [19] of 95.2%, a viability, T/C [20] of 98.1% and a viability, T/C [21] of 96%. It also gave a viability, T/C [22] of 98.7%, a viability, T/C [23] of 104% and a viability, T/C [24] of 102%. For the same compound, the viability, T/C [25] was 68.3%, the viability, T/C [26] was 58.9% and the viability, T/C [27] was 71.8%. The viability, T/C [28] was 69.4%, the viability, T/C [29] was 58.4% and the viability, T/C [30] was 79%. For the same compound, the viability, T/C [31] was 40.4%, the viability, T/C [32] was 41.7% and the viability, T/C [33] was 39.5%. For the same compound, the viability, T/C [34] was 33%, the viability, T/C [35] was 41.4% and the viability, T/C [36] was 36.4%.
Compound `CC(C)n1nc(-c2ccc3oc(N)nc3c2)c2c(N)ncnc21` + Cc1nc(NC(=O)N2CCCC2C(N)=O)sc1-c1ccnc(C(C)(C)C(F)(F)F)c1 has an IC50 (second compound 0.0316 µM) of 59 nM, an IC50 (second compound 0.1 µM) of 59.6 nM and an IC50 (second compound 0.316 µM) of 46.6 nM. For the same compound, the IC50 (second compound 1 µM) was 25.5 nM, the IC50 (second compound 3.16 µM) was 4.22 nM and the IC50 (second compound 10 µM) was less than 0.316 nM. The viability, T/C [1] was 91.6%, the viability, T/C [2] was 96% and the viability, T/C [3] was 107%. For the same compound, the viability, T/C [4] was 94.6%, the viability, T/C [5] was 67.5% and the viability, T/C [6] was 35.3%. For the same compound, the viability, T/C [7] was 100%, the viability, T/C [8] was 93.6% and the viability, T/C [9] was 96.9%. The viability, T/C [10] was 91.1%, the viability, T/C [11] was 66.5% and the viability, T/C [12] was 36.5%. The viability, T/C [13] was 98.6%, the viability, T/C [14] was 91.6% and the viability, T/C [15] was 97.8%. It also gave a viability, T/C [16] of 76.8%, a viability, T/C [17] of 56.6% and a viability, T/C [18] of 39%. For the same compound, the viability, T/C [19] was 92%, the viability, T/C [20] was 84.2% and the viability, T/C [21] was 77.3%. For the same compound, the viability, T/C [22] was 64.4%, the viability, T/C [23] was 46% and the viability, T/C [24] was 30%. It also gave a viability, T/C [25] of 63.9%, a viability, T/C [26] of 55.1% and a viability, T/C [27] of 54.2%. For the same compound, the viability, T/C [28] was 43.5%, the viability, T/C [29] was 34.5% and the viability, T/C [30] was 21.4%. The viability, T/C [31] was 35.2%, the viability, T/C [32] was 32.2% and the viability, T/C [33] was 30.9%. For the same compound, the viability, T/C [34] was 25.1%, the viability, T/C [35] was 23.9% and the viability, T/C [36] was 14.4%.
In the case of `CC1(C)CCC(CN2CCN(c3ccc(C(=O)NS(=O)(=O)c4ccc(NCC5CCOCC5)c([N+](=O)[O-])c4)c(Oc4cnc5[nH]ccc5c4)c3)CC2)=C(c2ccc(Cl)cc2)C1` + Cc1nc(NC(=O)N2CCCC2C(N)=O)sc1-c1ccnc(C(C)(C)C(F)(F)F)c1, the IC50 (second compound 0.0316 µM) is reported as 5810 nM, the IC50 (second compound 0.1 µM) is reported as 5800 nM and the IC50 (second compound 0.316 µM) is reported as 5320 nM. It also gave an IC50 (second compound 1 µM) of 4220 nM, an IC50 (second compound 3.16 µM) of 1710 nM and an IC50 (second compound 10 µM) of less than 31.6 nM. It also gave a viability, T/C [5] of 102%, a viability, T/C [6] of 115% and a viability, T/C [37] of 104%. The viability, T/C [38] was 101%, the viability, T/C [39] was 84.4% and the viability, T/C [40] was 19.3%. For the same compound, the viability, T/C [11] was 115%, the viability, T/C [12] was 101% and the viability, T/C [41] was 110%. For the same compound, the viability, T/C [42] was 97.9%, the viability, T/C [43] was 85% and the viability, T/C [44] was 19.8%. The viability, T/C [17] was 111%, the viability, T/C [18] was 103% and the viability, T/C [45] was 112%. The viability, T/C [46] was 107%, the viability, T/C [47] was 75.7% and the viability, T/C [48] was 18.7%. It also gave a viability, T/C [23] of 91.5%, a viability, T/C [24] of 104% and a viability, T/C [49] of 97.2%. The viability, T/C [50] was 90.7%, the viability, T/C [51] was 60.8% and the viability, T/C [52] was 17.9%. It also gave a viability, T/C [29] of 69.3%, a viability, T/C [30] of 66.7% and a viability, T/C [53] of 63.9%. For the same compound, the viability, T/C [54] was 59.3%, the viability, T/C [55] was 40.2% and the viability, T/C [56] was 18.3%. For the same compound, the viability, T/C [35] was 38.6%, the viability, T/C [36] was 34.1% and the viability, T/C [57] was 38.1%. The viability, T/C [58] was 35.7%, the viability, T/C [59] was 33% and the viability, T/C [60] was 15.1%.
`CCCS(=O)(=O)Nc1ccc(F)c(C(=O)c2c[nH]c3ncc(-c4ccc(Cl)cc4)cc23)c1F` + Cc1nc(NC(=O)N2CCCC2C(N)=O)sc1-c1ccnc(C(C)(C)C(F)(F)F)c1 gave an IC50 (second compound 0.0316 µM) of 5850 nM, an IC50 (second compound 0.1 µM) of 5600 nM and an IC50 (second compound 0.316 µM) of 5650 nM. For the same compound, the IC50 (second compound 1 µM) was 4520 nM, the IC50 (second compound 3.16 µM) was 3140 nM and the IC50 (second compound 10 µM) was less than 31.6 nM. The viability, T/C [5] was 110%, the viability, T/C [6] was 92% and the viability, T/C [37] was 93.7%. For the same compound, the viability, T/C [38] was 103%, the viability, T/C [39] was 98% and the viability, T/C [40] was 8.19%. The viability, T/C [11] was 100%, the viability, T/C [12] was 105% and the viability, T/C [41] was 98.7%. For the same compound, the viability, T/C [42] was 106%, the viability, T/C [43] was 90.7% and the viability, T/C [44] was 8.86%. For the same compound, the viability, T/C [17] was 99.6%, the viability, T/C [18] was 111% and the viability, T/C [45] was 90.8%. It also gave a viability, T/C [46] of 105%, a viability, T/C [47] of 89.6% and a viability, T/C [48] of 10.9%. It also gave a viability, T/C [23] of 93.2%, a viability, T/C [24] of 90.1% and a viability, T/C [49] of 88.7%. The viability, T/C [50] was 83.9%, the viability, T/C [51] was 70.7% and the viability, T/C [52] was 6.27%. For the same compound, the viability, T/C [29] was 62%, the viability, T/C [30] was 56.8% and the viability, T/C [53] was 56.5%. For the same compound, the viability, T/C [54] was 58.7%, the viability, T/C [55] was 49.8% and the viability, T/C [56] was 6.48%. The viability, T/C [35] was 33.5%, the viability, T/C [36] was 32.5% and the viability, T/C [57] was 38.7%. It also gave a viability, T/C [58] of 36.4%, a viability, T/C [59] of 31.2% and a viability, T/C [60] of 5.01%.
